Assay results taken from ChEMBL document CHEMBL4270538, “Targeting prohibitin with small molecules to promote melanogenesis and apoptosis in melanoma cells” (Eur J Med Chem, 2018).
Activity calls are given as the source filed them. The rule behind the calls is not given here.

What was measured:
[1] = biological target: T1, Prohibitin 1 (Homo sapiens) (UniProt P35232); test: Downregulation of PHB1 in human HBL cells at 0.1 to 10 uM after 24 to 48 hrs by Western blot analysis; type: cell-based
T1 sequence (whole entry): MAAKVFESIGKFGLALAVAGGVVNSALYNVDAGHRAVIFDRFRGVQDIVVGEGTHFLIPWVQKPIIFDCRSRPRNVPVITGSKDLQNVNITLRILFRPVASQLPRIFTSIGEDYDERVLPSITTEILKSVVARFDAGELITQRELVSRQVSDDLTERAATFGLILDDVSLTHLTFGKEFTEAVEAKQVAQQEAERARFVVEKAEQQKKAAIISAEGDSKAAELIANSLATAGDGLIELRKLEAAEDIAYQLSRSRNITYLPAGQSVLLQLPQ

[2] = biological target: Prohibitin-2 (Homo sapiens) (UniProt Q99623); test: Induction of PHB2-mediated melanogenesis in human HBL cells assessed as pigmentation at 1 uM after 10 days relative to control; type: cell-based
[3] = biological target: Prohibitin-2 (Homo sapiens) (UniProt Q99623); test: Induction of PHB2-mediated melanogenesis in human HBL cells assessed as pigmentation at 10 uM after 10 days relative to control; type: cell-based
[4] = biological target: Prohibitin-2 (Homo sapiens) (UniProt Q99623); test: Induction of PHB2-mediated melanogenesis in human MM043 cells assessed as pigmentation at 1 to 10 uM after 10 days relative to control; type: cell-based
[5] = biological target: Prohibitin-2 (Homo sapiens) (UniProt Q99623); test: Induction of PHB2-mediated melanogenesis in human MM162 cells assessed as pigmentation at 1 to 10 uM after 10 days relative to control; type: cell-based
[6] = biological target: Prohibitin-2 (Homo sapiens) (UniProt Q99623); test: Binding affinity to PHB2 in human HBL cells assessed as upregulation of MITF protein expression at 0.1 to 10 uM after 24 to 48 hrs by Western blot analysis; type: cell-based
[7] = biological target: Prohibitin-2 (Homo sapiens) (UniProt Q99623); test: Binding affinity to PHB2 in human HBL cells assessed as upregulation of tyrosinase protein expression at 0.1 to 10 uM after 24 to 48 hrs by Western blot analysis; type: cell-based
[8] = biological target: Prohibitin-2 (Homo sapiens) (UniProt Q99623); test: Binding affinity to PHB2 in human HBL cells assessed as LC3-2 accumulation after 24 to 48 hrs by Western blot analysis; type: cell-based
[9] = biological target: Prohibitin-2 (Homo sapiens) (UniProt Q99623); test: Binding affinity to PHB2 in human HBL cells assessed as upregulation of ERK phosphorylation at 0.1 to 10 uM after 24 hrs by Western blot analysis; type: cell-based
[10] = biological target: Prohibitin-2 (Homo sapiens) (UniProt Q99623); test: Binding affinity to PHB2 in human HBL cells assessed as feedback mechanism based inhibition of ERK phosphorylation at 0.1 to 10 uM after 48 hrs by Western blot analysis; type: cell-based
[11] = biological target: Prohibitin-2 (Homo sapiens) (UniProt Q99623); test: Downregulation of PHB2 in human HBL cells at 0.1 to 10 uM after 24 to 48 hrs by Western blot analysis; type: cell-based
[12] = biological target: RAC-alpha serine/threonine-protein kinase (Homo sapiens) (UniProt P31749); test: Inhibition of Akt phosphorylation in human HBL cells at 0.1 to 10 uM after 24 to 48 hrs by Western blot analysis; type: cell-based
HL-60 = test: Inhibition of cell proliferation in human HL60 cells after 72 hrs by MTS assay; type: functional, cell-based; conditions: HL-60, 72 h
KB = test: Inhibition of cell proliferation in human KB cells after 72 hrs by MTS assay; type: functional, cell-based
[13] = biological target: T1, Prohibitin 1 (Homo sapiens); test: Downregulation of PHB1 in human HL60 cells at 0.1 to 10 uM after 24 hrs by Western blot analysis; type: cell-based
[14] = biological target: Prohibitin-2 (Homo sapiens) (UniProt Q99623); test: Downregulation of PHB2 in human HL60 cells at 0.1 to 10 uM after 24 hrs by Western blot analysis; type: cell-based
[15] = biological target: Prohibitin-2 (Homo sapiens) (UniProt Q99623); test: Binding affinity to PHB2 in human HL60 cells assessed as LC3-2 accumulation at 0.1 to 10 uM after 24 hrs by Western blot analysis; type: cell-based
[16] = biological target: Prohibitin-2 (Homo sapiens) (UniProt Q99623); test: Binding affinity to PHB2 in human HL60 cells assessed as upregulation of ERK phosphorylation at 0.1 uM after 24 hrs by Western blot analysis; type: cell-based
[17] = biological target: RAC-alpha serine/threonine-protein kinase (Homo sapiens) (UniProt P31749); test: Inhibition of Akt phosphorylation in human HL60 cells after 24 to 48 hrs by Western blot analysis; type: cell-based
[18] = biological target: T1, Prohibitin 1 (Homo sapiens); test: Binding affinity to PHB1 in human HBL cells using affigel conjugated compound after overnight incubation by pull down assay; type: cell-based

Chain of Prohibitin-2 (Homo sapiens) (Q99623 whole entry): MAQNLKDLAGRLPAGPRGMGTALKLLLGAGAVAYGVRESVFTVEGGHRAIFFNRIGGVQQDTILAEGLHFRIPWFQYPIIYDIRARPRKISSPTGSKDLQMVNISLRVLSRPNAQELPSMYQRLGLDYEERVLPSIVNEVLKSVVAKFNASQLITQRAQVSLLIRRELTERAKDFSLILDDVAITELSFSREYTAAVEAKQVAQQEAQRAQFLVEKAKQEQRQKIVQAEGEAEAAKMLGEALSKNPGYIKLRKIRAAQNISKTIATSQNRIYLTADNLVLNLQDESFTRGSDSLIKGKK
Chain of RAC-alpha serine/threonine-protein kinase (Homo sapiens) (P31749 whole entry): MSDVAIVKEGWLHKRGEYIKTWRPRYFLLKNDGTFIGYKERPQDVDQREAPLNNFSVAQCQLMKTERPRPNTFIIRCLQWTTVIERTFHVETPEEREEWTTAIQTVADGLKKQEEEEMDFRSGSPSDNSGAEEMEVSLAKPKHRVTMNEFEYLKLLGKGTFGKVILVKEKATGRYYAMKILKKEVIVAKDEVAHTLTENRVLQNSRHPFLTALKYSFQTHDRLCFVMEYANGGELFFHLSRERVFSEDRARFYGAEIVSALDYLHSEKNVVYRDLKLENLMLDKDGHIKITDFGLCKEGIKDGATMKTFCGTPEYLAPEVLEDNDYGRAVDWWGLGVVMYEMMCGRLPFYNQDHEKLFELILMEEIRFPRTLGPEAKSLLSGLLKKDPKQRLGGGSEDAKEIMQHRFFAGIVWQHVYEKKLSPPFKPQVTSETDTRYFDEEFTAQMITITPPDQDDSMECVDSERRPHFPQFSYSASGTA

Activity [1]	fold change (FC) [2]	fold change (FC) [3]	Activity [4]	Activity [5]	Activity [6]	Activity [7]	Activity [8]	Activity [9]	inhibition [10]	Activity [11]	inhibition [12]	IC50 (HL-60)	IC50 (KB)	Activity [13]	Activity [14]	Activity [15]	Activity [16]	inhibition [17]	Activity [18]	SMILES
Active	0.89	2.23	Active	Active	Active	Active	Dose-dependent effect	Active	Active	Active	Active	95 µM	63 µM	Active	Active	Active	Active	Dose-dependent effect	–	CN(C)CCNc1nc(Oc2c(F)c(F)c(F)c(F)c2F)nc(N2CCCc3ccccc3C2)n1
–	0.87	1.79	–	–	–	–	–	–	–	–	–	–	–	–	–	–	–	–	Active	Fc1c(F)c(F)c(Oc2nc(N3CCC(N4CCCCC4)CC3)nc(N3CCCc4ccccc4C3)n2)c(F)c1F
